Series [1] can be described thus: Post-preparative stability of extracted samples. In kind it is physicochemical. The conditions noted are these: for Mean recovery: n = 8, ± SD. The method, then: (§1) Freeze-thawed, post-preparative and long-term stability assay samples were prepared and evaluated similar to the short-term stability samples. However, the freeze thawing assay was assessed after undergoing three freeze-thaw cycles (one freeze-thaw cycle per day on three consecutive days) and post-preparative assay, maintaining the extracted samples for 24 hours in the Sample Manager (20°C, transparent vials). The long-term stability of human plasma stored at -40°C was assessed at the end of the study (60 days).

The nature of series [2]: Stability of stock solutions and working standard solutions. Type of series: physicochemical. The conditions noted are these: for Mean recovery: n = 8, ± SD. The method, then:
The stability of the stock solutions (1 mg/mL of each analyte and ISs) was evaluated after 30 days of storage in a refrigerator (4°C, amber bottles). The stored solutions were diluted with acetonitrile/water (70:30 v/v) to obtain the same concentration levels as the short-term stability assay. The stability of the stock solutions was evaluated by comparing the mean recovery of the analytes and IS obtained from stored samples to the mean values obtained with freshly prepared samples, at the same concentration levels. The stability of the working standard solutions was assessed using a procedure similar to that described for stock solution stability. […]

The nature of series [3]: Stability in human plasma: short-term, freeze-thaw and long-term. Conditions: for Mean recovery: n = 8, ± SD. Type of series: in vitro ADME. The procedure:
The samples were vortexed for 2 min and then were kept at room temperature for 8 h. Afterward, the samples were spiked with 50 μL of IS solution and were vortexed (2 min) and submitted to the extraction procedures. The short-term stability was evaluated by comparing the mean recovery of the analytes and the IS obtained from stored samples with the mean values obtained with freshly prepared samples, at same concentration levels.
as §1

A short description of series [4]: Initial screening of bioavailability: 60 mL of guaco syrup orally. In kind it is in vivo, human. The conditions noted are these: 60 mL guaco syrup (17.6 mg COU, 1.1 mg OCA, 8.9 mg KAU), up to 600 min. The method, then: All the volunteers fasted for 8 h prior to the administration of guaco syrup and blood collection. […] The anticoagulant used was tetrasodium edetate. […] The pharmacokinetic analysis was performed using a non-compartmental model, considering an extravascular administration route and using WinNonlin Professional software, version 5.3. The relationships among the areas under the curves (r areas = AUC0-t/AUC0-inf), were used to confirm the suitability of the experimental design.

Series [5] concerns carrageenan-induced paw edema. On the set-up: method as in PMID 21211951. The conditions noted are these: mice, 50 mg/kg, 5 h after the induction of inflammation; cited from earlier work.
The test system of series [6] is release of prostaglandin E2. Also noted: method as in PMID 21211951. Conditions: LPS-induced RAW264.7 macrophages; cited from earlier work.
Another series concerns the target cyclooxygenase-2. Also noted: method as in PMID 21211951. Conditions: LPS-induced RAW264.7 macrophages; cited from earlier work.
Series [7] concerns synthesis of nitric oxide. On the set-up: method as in PMID 21211951. Conditions: LPS-induced RAW264.7 macrophages; read-out: IC50, inhibition of the synthesis of nitric oxide; cited from earlier work.
For series [8], the system named is endothelium-intact or denuded rat aortic rings. Also noted: method as in PMID 15178370, PMID 11864765. The conditions noted are these: cited from earlier work.
Details of series [9]: method as in PMID 7150456. The conditions noted are these: cited from earlier work.
The mark [10] stands for this setting: post-preparative, internal standard level.
Setting [11] is: post-preparative, internal standard level (500.0, 1000.0, 500.0 ng/mL).
[12] abbreviates: 8 h at room temperature, internal standard level (6-methylcoumarin 500.0, Isoferulic acid 1000.0, Prednisone 500.0 ng/mL).
Setting [13] is: 8 h at room temperature, internal standard level, stored vs freshly prepared.
The mark [14] stands for this setting: 30 days at 4 °C (stock solutions), internal standard level (500.0, 1000.0, 500.0 ng/mL).
Setting [15] is: 30 days at 4 °C, internal standard level.
The mark [16] stands for this setting: Short-term, internal standard level.
The mark [17] stands for this setting: Short-term, internal standard level (500.0, 1000.0, 500.0 ng/mL).

The structures appear in SMILES notation.

We go through 5 compounds from paper PMC4355590, “A Kinetic Study of the Main Guaco Metabolites Using Syrup Formulation and the Identification of an Alternative Route of Coumarin Metabolism in Humans” (PLoS ONE, 2015).

In the case of `Cc1ccc2oc(=O)ccc2c1` [6-methylcoumarin, reference compound], the RE in series [1] (setting [10]) was -6.38%; in series [2] (setting [13]), -0.54%; in series [2] (setting [15]) it was -3.89%; in series [3] (setting [16]), 0.45%. Besides, the Mean recovery in series [1] (setting [11]) worked out at 468.1 ± 22.6 ng/mL; in series [2] (setting [12]), 497.3 ± 3.8 ng/mL; in series [2] (setting [14]), 480.6 ± 46.6 ng/mL; in [3] (setting [17]), 501.1 ± 1.6 ng/mL.

For `COc1ccc(/C=C/C(=O)O)cc1O` [Isoferulic acid, isoferulic acid, reference compound], the RE in series [1] (setting [10]) is listed as -1.35%; in series [2] (setting [13]), -5.00%; in series [2] (setting [15]) it was 3.75%; in [3] (setting [16]) it was -0.07%. Besides, the Mean recovery in series [1] (setting [11]) is reported as 986.5 ± 31.7 ng/mL; in series [2] (setting [12]) it was 950.0 ± 75.2 ng/mL; in [2] (setting [14]), 1037.5 ± 68.1 ng/mL; in series [3] (setting [17]), 999.3 ± 62.2 ng/mL.

As for `C=C1C[C@@]23CC[C@H]4[C@@](C)(CCC[C@@]4(C)C(=O)O)[C@@H]2CC[C@@H]1C3` [KAU, kaurenoic acid], the Mean recovery in series [1] (post-preparative: extracted samples 24 hours at 20°C, high level (1250.0, 750.0, 750.0, 500.0 ng/mL)) is listed as 509.8 ± 6.6 ng/mL; in [1] (post-preparative: extracted samples 24 hours at 20°C, low level (50.0, 12.5, 25.0, 10.0 ng/mL)) it was 9.8 ± 0.4 ng/mL; in [2] (8 h at room temperature, high level (Coumarin 1250.0, 7-hydroxycoumarin 750.0, o-coumaric acid 750.0, Kaurenoic acid 500.0 ng/mL)), 516.6 ± 5.1 ng/mL; in series [2] (8 h at room temperature, low level (Coumarin 50.0, 7-hydroxycoumarin 12.5, o-coumaric acid 25.0, Kaurenoic acid 10.0 ng/mL)), 10.2 ± 0.7 ng/mL; in series [2] (30 days at 4 °C (stock solutions), high level (1250.0, 750.0, 750.0, 500.0 ng/mL)), 487.8 ± 34.9 ng/mL; in [2] (30 days at 4 °C (stock solutions), low level (50.0, 12.5, 25.0, 10.0 ng/mL)) it was 9.75 ± 0.6 ng/mL. Further, the Mean recovery in series [3] (Long-term: plasma at -40°C, 60 days, high level (1250.0, 750.0, 750.0, 500.0 ng/mL)) is 463.2 ± 12.3 ng/mL; in series [3] (Long-term: plasma at -40°C, 60 days, low level (50.0, 12.5, 25.0, 10.0 ng/mL)), 8.8 ± 0.3 ng/mL; in [3] (Short-term: plasma at room temperature for 8 h, high level (1250.0, 750.0, 750.0, 500.0 ng/mL)), 498.9 ± 7.6 ng/mL; in [3] (Short-term: plasma at room temperature for 8 h, low level (50.0, 12.5, 25.0, 10.0 ng/mL)) it was 10.0 ± 0.3 ng/mL; in series [3] (three freeze–thaw cycles, plasma, high level (1250.0, 750.0, 750.0, 500.0 ng/mL)) it was 502.5 ± 6.1 ng/mL; in series [3] (three freeze–thaw cycles, plasma, low level (50.0, 12.5, 25.0, 10.0 ng/mL)) it was 9.9 ± 0.4 ng/mL. The RE is reported as 1.96% in series [1] (post-preparative, high level); -1.70% in [1] (post-preparative, low level); 3.33% in series [2] (8 h at room temperature, high level, stored vs freshly prepared); 8.94% in series [2] (8 h at room temperature, low level, stored vs freshly prepared); 3.33% in series [2] (30 days at 4 °C, high level); -2.46% in series [2] (30 days at 4 °C, low level). In addition, the RE in [3] (Long-term, high level) is listed as -7.36%; in series [3] (Long-term, low level) it was -11.70%; in series [3] (Short-term, high level), -0.22%; in series [3] (Short-term, low level), 0.23%; in series [3] (freeze–thaw cycles, high level) it was 0.49%; in series [3] (freeze–thaw cycles, low level), -0.41%. Besides, the “plasma levels after guaco syrup without spiking” value in series [4] is “did not provide sufficient levels”. Moreover, the “reduction of the swelling” value in [5] is 34.4%. In addition, the values for the concentration for half-maximal inhibition (IC50) in [6] and in series [7] were 106 µM and 51.7 µM, respectively. In addition, the “IC50, expression of cyclooxygenase-2 activity” value at cyclooxygenase-2 is 3.5 µg/mL. For the same compound, the “concentration promoting vasodilatory effects in rat aortas” value in series [8] (endothelium-intact or denuded rings) is listed as “greater than 10 mM”. Further, the “concentration with concentration-dependent activity on vascular smooth muscle” value in series [8] (rat aortic rings pre-contracted with phenylephrine and potassium chloride) was at least 10 µM.

For `C[C@]12C=CC(=O)C=C1CC[C@@H]1[C@@H]2C(=O)C[C@@]2(C)[C@H]1CC[C@]2(O)C(=O)CO` [Prednisone, prednisone, reference compound], the RE in series [1] (setting [10]) is reported as -4.14%; in series [2] (setting [13]), -5.90%; in series [3] (setting [16]), 0.43%. Further, the Mean recovery in [1] (setting [11]) was found to be 479.3 ± 16.9 ng/mL; in [2] (setting [12]), 470.5 ± 26.6 ng/mL; in series [2] (setting [14]) it was 497.0 ± 13.9 ng/mL; in [3] (setting [17]), 502.2 ± 11.1 ng/mL.

Regarding `Cn1c(=O)c2[nH]cnc2n(C)c1=O` [theophylline], the clearance in series [9] is on record as 2.8 L/h.
